Measured values taken from patent publication US20060079453A1, “Hla binding peptides and their uses” (priority 2002, published 2006).
“And” between values parts separate entries of the source, which are not always exact repeats. Equal values may be shown once. Read-outs that look alike come from different tables or passages of the source. No end group written: not given here.

Experiments:
Test in all cases: biochemical
H-2 Db = H-2 Db (Mus musculus, UniProt P01899); format: binding, murine; conditions: Db
Sequence of H-2 Db (P61769 21-119): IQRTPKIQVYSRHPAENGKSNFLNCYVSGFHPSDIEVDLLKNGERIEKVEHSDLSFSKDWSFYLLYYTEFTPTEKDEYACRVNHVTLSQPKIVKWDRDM
Sequence of H-2 Db (P01899 25-362): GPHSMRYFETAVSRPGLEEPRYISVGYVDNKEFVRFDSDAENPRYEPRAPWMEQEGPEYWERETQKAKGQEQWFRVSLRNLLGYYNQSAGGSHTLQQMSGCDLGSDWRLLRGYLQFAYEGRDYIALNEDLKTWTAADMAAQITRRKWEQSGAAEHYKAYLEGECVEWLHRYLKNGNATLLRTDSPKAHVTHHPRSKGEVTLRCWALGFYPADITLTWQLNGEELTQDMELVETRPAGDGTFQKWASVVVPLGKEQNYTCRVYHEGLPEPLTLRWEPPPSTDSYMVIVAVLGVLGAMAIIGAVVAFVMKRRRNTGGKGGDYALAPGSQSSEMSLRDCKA

H-2Ld = H-2Ld (Mus musculus, UniProt P01897); format: binding, murine
Sequence of H-2Ld (P01897 25-362): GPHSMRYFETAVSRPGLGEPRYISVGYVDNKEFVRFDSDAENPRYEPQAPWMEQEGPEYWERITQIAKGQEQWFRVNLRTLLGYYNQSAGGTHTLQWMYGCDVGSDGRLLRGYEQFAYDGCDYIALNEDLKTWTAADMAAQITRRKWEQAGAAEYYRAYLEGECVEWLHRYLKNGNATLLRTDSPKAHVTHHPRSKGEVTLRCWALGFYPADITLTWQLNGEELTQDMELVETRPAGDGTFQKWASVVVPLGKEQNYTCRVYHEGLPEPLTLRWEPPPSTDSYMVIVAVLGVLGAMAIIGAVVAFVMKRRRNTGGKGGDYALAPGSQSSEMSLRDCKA
Sequence of H-2Ld (P61769 21-119, further chain): as the sequence (P61769 21-119) above

HLA-B*0702 = HLA-B*0702 (Homo sapiens, UniProt P01889); format: binding
HLA-B*3501 = HLA-B*3501 (Homo sapiens, UniProt P01889, A329T/A93T/A95T/C349S/D201E/D98Y/E176V/E187L/E204Q/E69T/I218V/K202T/L119I/Q94N/R155S/R180L/S121R/S35A/S48A/T118I/V127L/V306I/V36M/Y140S/Y91F); conditions: B*3501 binding affinity (IC50)
HLA-B*5101 = HLA-B*5101 (Homo sapiens, UniProt P01889, A329T/A93T/A95T/C349S/D138N/D201E/D98Y/E187L/E204Q/E69T/G107R/I218V/K202T/L105A/L119W/N104I/Q94N/R106L/R155S/R180L/S101N/S121T/S35A/S48A/V306I/V36M/Y195H/Y91F); conditions: B*5101 binding affinity (IC50)
HLA-B*5301 = HLA-B*5301 (Homo sapiens, UniProt P01889, A329T/A93T/A95T/C349S/D201E/D98Y/E176V/E187L/E204Q/E69T/G107R/I218V/K202T/L105A/L119I/N104I/Q94N/R106L/R155S/R180L/S101N/S121R/S35A/S48A/T118I/V127L/V306I/V36M/Y140S/Y91F); format: binding
HLA-B*5401 = HLA-B*5401 (Homo sapiens, UniProt P01889, A329T/C349S/D138N/D201E/E176V/E187T/E204Q/E69G/I76V/K202T/L119W/R155S/R180L/S121T/S35A/S48A/V127L/V306I/V36M/Y140L); format: binding
H-2Kk = H-2Kk (Mus musculus, UniProt P04223); format: binding, murine
Sequence of H-2Kk (P04223 22-369): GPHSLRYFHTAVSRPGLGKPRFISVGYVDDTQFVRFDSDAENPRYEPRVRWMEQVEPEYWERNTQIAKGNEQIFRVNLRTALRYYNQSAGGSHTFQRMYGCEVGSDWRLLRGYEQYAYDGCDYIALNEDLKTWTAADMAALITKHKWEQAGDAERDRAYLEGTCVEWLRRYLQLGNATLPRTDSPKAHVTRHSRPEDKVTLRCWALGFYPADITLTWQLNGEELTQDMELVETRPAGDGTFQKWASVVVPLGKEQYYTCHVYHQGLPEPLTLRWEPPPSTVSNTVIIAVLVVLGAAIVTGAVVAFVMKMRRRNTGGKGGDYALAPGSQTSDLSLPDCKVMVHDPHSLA
Sequence of H-2Kk (P61769 21-119, further chain): as the sequence (P61769 21-119) above

[1] = target: HLA-DQ DQA1*0301/B*0302 (DQ8) (Homo sapiens, UniProt P01909+P01920, A209T/A45G/C70Q/D89A/DUP78-78/E183D/E77G/F237L/G63E/H199R/I129T/K197E/L178F/L74F/L98V/Q57E/Q76R/S185I/S97I/T217I/T49S/V73L/Y58L)
HLA-B*1801 = HLA-B*1801 (Homo sapiens, UniProt P01889, A329T/A93T/A95T/C349S/D201E/D54G/D98Y/E176V/E187T/E204Q/E69T/K202T/Q94N/R155S/R180L/S121R/V306I/Y140S/Y195H/Y33H/Y91S); format: binding; conditions: B*1801
HLA-B*4001 = HLA-B*4001 (Homo sapiens, UniProt P01889, A65T/A93T/A95T/D138N/D98Y/E176V/E69K/N87E/Q56L/Q94N/R180L/S121R/S35A/S48T/T167S/V36M/W171L/Y33H/Y91S); format: binding; conditions: B*4001
HLA-B*4402 = HLA-B*4402 (Homo sapiens, UniProt P01889, A223V/A65T/A93T/A95T/D201E/D98Y/E176V/E187L/E204Q/E69K/G107R/H137Y/K202T/L105A/L119I/N104T/N87E/Q56L/Q94N/R106L/R155S/R180D/S101N/S121R/S35A/S48T/T118I/V36M/W191S/Y140D/Y91S); format: binding; conditions: B*4402
HLA-B*4403 = HLA-B*4403 (Homo sapiens, UniProt P01889, A223V/A65T/A93T/A95T/D201E/D98Y/E176V/E187L/E204Q/E69K/G107R/H137Y/K202T/L105A/L119I/N104T/N87E/Q56L/Q94N/R106L/R155S/R180L/S101N/S121R/S35A/S48T/T118I/V36M/W191S/Y140D/Y91S); format: binding; conditions: B*4403
HLA-B*4002 = HLA-B*4002 (Homo sapiens, UniProt P01889, A65T/A93T/A95T/D138N/D201E/D98Y/E176V/E204Q/E69K/K202T/N87E/Q56L/Q94N/R180L/S48T/Y33H/Y91S); format: binding; conditions: B*4002
HLA-B*4501 = HLA-B*4501 (Homo sapiens, UniProt P01889, A329T/A65T/A93T/A95T/C349S/D138N/D201E/D98Y/E176V/E187L/E204Q/E69K/H137Y/K202T/L119W/N87E/Q56L/Q94N/R155S/R180D/S121R/S35A/S48T/V127L/V306I/V36M/W191S/Y140L/Y33H/Y91S); format: binding; conditions: B*4501

Molecule | IC50 (HLA-B*0702; B*0702 binding affinity (IC50)) | IC50 (HLA-B*3501) | IC50 (HLA-B*5101) | IC50 (HLA-B*5301; B*5301 binding affinity (IC50)) | IC50 (HLA-B*5401; B*5401 binding affinity (IC50)) | other results
KAVYNAATM | – | – | – | – | – | IC50 (H-2 Db): 2 nM; IC50 (H-2Ld; Ld): > 27000 nM
RPQVPLRPI | 367 nM | > 23200 nM | > 9000 nM | 85300 nM | – | –
RIPNASGVYM | – | – | – | – | – | IC50 (H-2Ld; read-out: Ld): 19 nM
SPGPGPGL | 173 nM | 2340 nM | 3540 nM | 25600 nM | 53300 nM | –
RPQGSGVYM | – | – | – | – | – | IC50 (H-2Ld; Ld): 39 nM
GPKVKQWPI | 5500 nM | > 72000 nM | > 55000 nM | – | > 50000 nM | –
TPTGWGLAI | 76 nM | 5140 nM | – | 1340 nM | – | –
FPLTFGWCI | 48000 nM | 164 nM | 63 nM | 36 nM | 14 nM | –
TPAIRGPGPGF | – | – | – | – | – | IC50 (HLA-B*0702; read-out: B*0702 binding affinity (IC50)): 144 nM; IC50 (HLA-B*5301; read-out: B*5301 binding affinity (IC50)): 2740 nM; IC50 (HLA-B*5401; read-out: B*5401 binding affinity (IC50)): 31800 nM
NEEPSDKHI | – | – | – | – | – | IC50 (H-2Kk): 40 nM
IDVWLGGLKENFLPY | – | – | – | – | – | IC50 [1]: > 2800 nM
CC(C)C[C@H](NC(=O)[C@@H]1CCCN1C(=O)[C@@H](NC(=O)[C@H](CCC(N)=O)NC(=O)[C@@H]1CCCN1C(=O)[C@H](CCCNC(=N)N)NC(=O)[C@@H](NC(=O)[C@@H]1CCCN1C(=O)[C@@H](N)Cc1ccccc1)C(C)C)C(C)C)C(=O)O | 17 nM | 3.8 nM | 18 nM | 49 nM | 21 nM | –
N=C(N)NCCC[C@H](NC(=O)[C@H](CCC(N)=O)NC(=O)[C@@H]1CCCN1C(=O)[C@@H](N)CCC(N)=O)C(=O)NCC(=O)N[C@@H](Cc1ccc(O)cc1)C(=O)N[C@@H](CCC(=O)O)C(=O)N[C@@H](CC(N)=O)C(=O)N[C@@H](Cc1ccccc1)C(=O)O | – | – | – | – | – | IC50 (H-2Ld; Ld): 319 nM
TPAGPGPGVF | 334 nM | 374 nM | – | 2630 nM | – | –
RPQASQVYM | – | – | – | – | – | IC50 (H-2Ld; Ld): 3.8 nM
LGFVFTLTV | 849 nM | > 72000 nM | – | > 93000 nM | – | –
RPQVPLRPMTI | – | > 19000 nM and 10500 nM | 8080 nM | – | > 15100 nM | –
SEAAYAKKI | – | – | – | – | – | IC50 (HLA-B*1801): 8610 nM; IC50 (HLA-B*4001): 308 nM; IC50 (HLA-B*4402): 1680 nM; IC50 (HLA-B*4403): 61 nM; IC50 (H-2Kk): 3.9 nM
LPPLERLTI | 24400 nM | 13400 nM | 359 nM | 2620 nM | 11200 nM | –
FPGPGPGPL | 1580 nM | 426 nM | 2330 nM | 21000 nM | 29900 nM | –
RPQASGVAM | – | – | – | – | – | IC50 (H-2Ld; Ld): 12 nM
QEKKRHVDL | – | – | – | – | – | IC50 (HLA-B*1801): 7.3 nM; IC50 (HLA-B*4001): 16000 nM; IC50 (HLA-B*4002): 63100 nM; IC50 (HLA-B*4402): 443 nM; IC50 (HLA-B*4501): 12600 nM; IC50 (H-2Kk): 256 nM
QPRAPIRPI | 6770 nM | > 72000 nM | > 55000 nM | – | > 100000 nM | –
RPRGPGPGSEF | 11 nM | 24900 nM | > 14800 nM | 19300 nM | 2740 nM | –
